Structures can show the parent of a compound that is named as a salt. Where two headings read alike, the source gives them in different places.
What was measured:
[1] = system: SUDHL5; assay: Induction of caspase-3/7 activity (Caspase-Glo 3/7), SUDHL5; type: cell-based; conditions: caspase-3/7 induction, SUDHL5 cells, 3 h treatment, median
In short: (§1)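 Apoptosis induction measured as caspase-3/7 activity (Caspase-Glo 3/7) in DLBCL lines after 3 h treatment at 37 °C; EC50 derived relative to the reference compound's maximal induction, with C0 fixed at 1.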

[2] = target: MCL-1 (Homo sapiens, UniProt Q07820); assay: Protein-protein interaction assay MCL-1/Noxa BH3 peptide (MCL-1 assay), TR-FRET; type: binding; conditions: MBP-MCL-1 / Noxa BH3-derived peptide, median
Sequence of MCL-1 (Q07820 whole entry): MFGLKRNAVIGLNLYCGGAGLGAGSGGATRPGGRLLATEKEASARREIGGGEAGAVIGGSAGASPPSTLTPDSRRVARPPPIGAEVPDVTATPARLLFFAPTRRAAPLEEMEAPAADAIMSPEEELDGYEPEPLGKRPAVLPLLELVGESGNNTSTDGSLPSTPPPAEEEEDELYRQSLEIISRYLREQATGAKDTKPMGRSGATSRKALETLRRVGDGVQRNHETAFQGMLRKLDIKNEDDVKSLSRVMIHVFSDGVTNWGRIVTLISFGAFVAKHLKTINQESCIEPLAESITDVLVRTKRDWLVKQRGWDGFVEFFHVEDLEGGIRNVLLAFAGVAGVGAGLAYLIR
In short: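 Inhibition values were normalized between DMSO controls with all reagents and controls lacking MCL-1. The binding competition used 1 nM MBP-MCL-1 in pH 7 Tris buffer containing 50 mM KF and 100 mM NaCl, with a 10 min compound preincubation at 22 °C.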

[3] = system: A2780; assay: Anti-proliferative effect (CellTiter-Glo, 72 h), A2780; type: cell-based; conditions: A2780 cells, median, read-out: IC50 antiproliferation assay A2780 [M] (median)
In short: (§2)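 Luminescence from CellTiter-Glo, read 10 min after reagent addition, reports viable cell content after 72 h of compound treatment at 37 °C. A reference plate read at day 0 gives the starting baseline.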

[4] = system: SUDHL5; assay: Anti-proliferative effect (CellTiter-Glo, 72 h), SUDHL5; type: cell-based; conditions: SUDHL5 cells, antiproliferation, median, read-out: Antiproli SUDHL5 [M] (median)
In short: as §2

[5] = system: SUDHL10; assay: Induction of cytotoxicity (CellTiter-Glo, 5 h), SUDHL10
[6] = system: SUDHL10; assay: Induction of caspase-3/7 activity (Caspase-Glo 3/7), SUDHL10; type: cell-based; conditions: caspase-3/7 induction, SUDHL10 cells, 3 h treatment, median
In short: as §1

[7] = system: SUDHL5; assay: Induction of cytotoxicity (CellTiter-Glo, 5 h), SUDHL5
[8] = system: SUDHL10; assay: Anti-proliferative effect (CellTiter-Glo, 72 h), SUDHL10; type: cell-based; conditions: SUDHL10 cells, antiproliferation, median, read-out: Antiproli SUDHL10 [M] (median)
In short: as §2

[9] = Homo sapiens, SU-DHL-5, 72 h, 72 h
[10] = Homo sapiens, SU-DHL10, 5 h, read-out: Cytotox SUDHL10 [M] (median), SUDHL10 cells, cytotoxicity induction, CellTiter-Glo, 5 h, median
[11] = Homo sapiens, SU-DHL-5, 5 h, read-out: Cytotox SUDHL5 [M] (median), SUDHL5 cells, cytotoxicity induction, CellTiter-Glo, 5 h, median
[12] = Homo sapiens, SU-DHL10, 72 h, 72 h
[13] = Homo sapiens, SU-DHL-5, 72 h, 72 h incubation
[14] = Homo sapiens, SU-DHL10, 5 h, read-out: Cytotox SUDHL10 [M] (median), SUDHL10 cells, cytotoxicity induction, CellTiter-Glo, 5 h incubation, median
[15] = Homo sapiens, SU-DHL-5, 5 h, read-out: Cytotox SUDHL5 [M] (median), SUDHL5 cells, cytotoxicity induction, CellTiter-Glo, 5 h incubation, median
[16] = Homo sapiens, SU-DHL10, 72 h, 72 h incubation
[17] = read-out: Cytotox SUDHL10 [M] (median), SUDHL10 cells, cytotoxicity induction, CellTiter-Glo, 5 h incubation, median
[18] = read-out: Cytotox SUDHL5 [M] (median), SUDHL5 cells, cytotoxicity induction, CellTiter-Glo, 5 h incubation, median

| SMILES | EC50 ([1]; Homo sapiens, SU-DHL-5, 3 h) [µM] | IC50 [2] [µM] | IC50 ([3]; Homo sapiens, A2780, 72 h) [M] | EC50 ([6]; Homo sapiens, SU-DHL10, 3 h) [µM] | IC50 [3] [M] | IC50 [4, 13] [M] | IC50 [5, 14] [M] | IC50 [7, 15] [M] | IC50 [8, 16] [M] | EC50 [1] [µM] | IC50 [5, 17] [M] | IC50 [7, 18] [M] | other results |
| --- | --- | --- | --- | --- | --- | --- | --- | --- | --- | --- | --- | --- | --- |
| Cn1nc(CN)c2c1COCCCCn1c(C(=O)O)c(CCCOc3cccc4ccccc34)c3cccc-2c31 (racemic) [Example 338, (rac)-3-(aminomethyl)-1-methyl-7-[3-(naphthalen-1-yloxy)propyl]-1,10,11,12,13,15-hexahydropyrazolo[4′,3′:9,10][1,6]oxazacycloundecino[8,7,6-hi]indole-8-carboxylic Acid] | > 33 | 0.048 | > 3.3e-05 | > 33 |  |  |  |  |  |  |  |  | IC50 [4, 9]: > 3.3e-05 M; IC50 [5, 10]: > 3.3e-05 M; IC50 [7, 11]: > 3.3e-05 M; IC50 [8, 12]: > 3.3e-05 M |
| Cc1cc(OCCCc2c(C(=O)O)n3c4c(cccc24)-c2c(C)nn(C)c2COCCC3)cc(C)c1Cl (single isomer, unassigned; enantiomer 1) [Example 014, 1-[3-(4-chloro-3,5-dimethylphenoxy)propyl]-9,11-dimethyl-5,6,8,9-tetrahydro-4H-pyrazolo[4′,3′:8,9][1,5]oxazecino[7,6,5-hi]indole-2-carboxylic acid-N-ethylethanamine Salt (Enantiomer 1)] | 26.6 | 0.00995 |  | > 33 | > 3.3e-05 | 2.23e-05 | > 3.3e-05 | 2.27e-05 | 7.24e-06 |  |  |  |  |
| Cc1c2c(nn1C1CC1)COCCCCn1c(C(=O)O)c(CCCOc3cccc4ccccc34)c3cccc-2c31 (racemic) [Example 092, (rac)-2-cyclopropyl-3-methy-7-[3-(naphthalen-1-yloxy)propyl]-2,10,11,12,13,15-hexahydropyrazolo[4′,3′:9,10][1,6]oxazacycloundecino[8,7,6-hi]indole-8-carboxylic Acid] | 6.16 | 0.00708 | 2.48e-05 | 20.2 |  | 8.25e-06 | 2.23e-05 | 6.75e-06 | 2.06e-06 |  |  |  |  |
| Cn1nc2c(c1CN1CCOCC1)-c1cccc3c(CCCOc4cccc5ccccc45)c(C(=O)O)n(c13)CCOCCOC2 (racemic) [Example 087] | > 33 | 0.097 | > 3.3e-05 | > 33 |  | > 3.3e-05 | > 3.3e-05 | > 3.3e-05 | 1.41e-05 |  |  |  |  |
| Cn1nc(COc2ccc(NS(C)(=O)=O)cc2)c2c1COCCCCn1c(C(=O)O)c(CCCOc3cccc4ccccc34)c3cccc-2c31 (single isomer, unassigned; enantiomer 1) [Example 322, 1-methyl-3-({4-[((methylsulfonyl)amino]phenoxy}methyl)-7-[3-(naphthalen-1-yloxy)propyl]-1,10,11,12,13,15-hexahydropyrazolo[4′,3′:9,10][1,6]oxazacycloundecino[8,7,6-hi]indole-8-carboxylic Acid-N-ethylethanamine Salt (Enantiomer 1)] | > 33 | 1.08 | > 3.3e-05 | > 33 |  |  |  |  |  |  |  |  | IC50 [4, 9]: 2.46e-05 M; IC50 [5, 10]: > 3.3e-05 M; IC50 [7, 11]: > 3.3e-05 M; IC50 [8, 12]: 1.9e-05 M |
| Cc1cc2c(OCCCc3c(C(=O)O)n4c5c(cccc35)-c3c(C)nn(C)c3COCCCC4)cccc2cc1F (single isomer, unassigned; enantiomer 1) [Example 050, 7-{3-[(6-fluoro-7-methylnaphthalen-1-yl)oxy]propyl}-1,3-dimethyl-1,10,11,12,13,15-hexahydropyrazolo[4′,3′:9,10][1,6]oxazacycloundecino[8,7,6-hi]indole-8-carboxylic acid-N-ethylethanamine Salt (Enantiomer 1)] |  | 0.00882 | 3.01e-05 | 18.8 |  | 1.41e-05 |  |  | 7.75e-06 | 6.3 | 9.61e-06 | 4.45e-06 |  |
| Cc1nn(CC(F)(F)F)c2c1-c1cccc3c(CCCOc4cccc5c4CCCC5)c(C(=O)O)n(c13)CCCCOC2 (single isomer, unassigned; enantiomer 2) [Example 163, 3-methyl-7-[3-(5,6,7,8-tetrahydronaphthalen-1-yloxy)propyl]-1-(2,2,2-trifluoroethyl)-1,10,11,12,13,15-hexahydropyrazolo[4′,3′:9,10][1,6]oxazacycloundecino[8,7,6-hi]indole-8-carboxylic acid-N-ethylethanamine Salt (Enantiomer 2)] |  | 0.637 |  |  | 2.75e-05 |  |  |  | 6.35e-06 | > 33 | > 3.3e-05 | 2.93e-05 | IC50 ([4]; 72 h incubation): 1.17e-05 M; EC50 [6]: > 33 µM |
| COc1ccc(OCc2nn(C)c3c2-c2cccc4c(CCCOc5cccc6ccccc56)c(C(=O)O)n(c24)CCCCOC3)cc1 (single isomer, unassigned; enantiomer 2) [Example 321, 3-[(4-methoxyphenoxy)methyl]-1-methyl-7-[3(naphthalen-1 yloxy)propyl]-1,10,11,12,13,15-hexahydropyrazolo[4′,3′:9,10][1,6]oxazacycloundecino[8,7,6-hi]indole-8-carboxylic acid-N-ethylethanamine Salt (Enantiomer 2)] |  | 0.639 |  |  | 1e-05 |  |  |  |  | 30.3 |  |  | IC50 ([4]; 72 h): 1.22e-05 M; IC50 ([5]; read-out: Cytotox SUDHL10 [M] (median), SUDHL10 cells, cytotoxicity induction, CellTiter-Glo, 5 h, median): 2.56e-05 M; EC50 [6]: > 33 µM; IC50 ([7]; read-out: Cytotox SUDHL5 [M] (median), SUDHL5 cells, cytotoxicity induction, CellTiter-Glo, 5 h, median): 2.97e-05 M; IC50 ([8]; 72 h): 4.61e-06 M |
| O=C(O)c1c(CCCOc2cccc3ccccc23)c2cccc3c2n1CCCCOCc1nn2c(c1-3)OCCC2 (single isomer, unassigned) [Example 248, 1-[3-(naphthalen-1-yloxy)propyl]-4,5,6,7,13,14-hexahydro-9H,12H-[1,3]oxazino[3″,2″:1′,5]pyrazolo[4′,3′:9,10][1,6]oxazacycloundecino[8,7,6-hi]indole-2-carboxylic Acid] |  | 0.00474 | 2.34e-05 |  | > 3.3e-05 |  |  |  | 8.78e-06 | 3.17 | 1.29e-05 | 3.38e-06 | IC50 ([4]; 72 h incubation): 6.51e-06 M; EC50 [6]: 12.9 µM |
| CCc1nn(CCN2CCOCC2)c2c1-c1cccc3c(CCCOc4cccc5ccccc45)c(C(=O)O)n(c13)CCCCOC2 (racemic) [Example 198, (rac)-3-ethyl-1-[2-(morpholin-4-yl)ethyl]-7-[3-(naphthalen-1-yloxy)propyl]-1,10,11,12,13,15-hexahydropyrazolo[4′,3′:9,10][1,6]oxazacycloundecino[8,7,6-hi]indole-8-carboxylic Acid] | 1.72 | 0.0028 | 2.25e-05 | 6.94 |  | 3.35e-06 | 6.77e-06 | 2.05e-06 | 7.48e-06 |  |  |  |  |
| Cc1ccc2c(CCCOc3cccc4ccccc34)c(C(=O)O)n3c2c1-c1c(C)nn(C)c1COCCC3 (single isomer, unassigned; enantiomer 1) [Example 025, (+)-9,11,12-trimethyl-1-[3-(naphthalen-1-yloxy)propyl]-5,6,8,9-tetrahydro-4H-pyrazolo[4′,3′:8,9][1,5]oxazecino[7,6,5-hi]indole-2-carboxylic acid-N-ethylethanamine Salt (Enantiomer 1)] |  | 0.00184 | 3.04e-05 | 11.1 | > 3.3e-05 | 6.44e-06 |  |  | 4.29e-06 | 3.04 | 8.77e-06 | 2.98e-06 |  |
